Source: PMC3114339 (Diabetes Care, 2011)

System: type 2 diabetic subjects
Experiment: Euglycemic glucose clamp for 32 h after s.c. injection of basal insulin
Type: in vivo, human

detemir
plasma free fatty acid concentrations higher with detemir compared with glargine (throughout the 32-h clamp study, P < 0.001): +26% | plasma free fatty acid concentrations higher with detemir compared with NPH (throughout the 32-h clamp study, P = 0.003): +15%

glargine
interquartile range in time of duration of action (plasma glucose >136 mg/dL) (32-h clamp, statistical significance achieved only versus detemir): smaller interquartile range in time of duration of action than NPH and detemir | mean GIR AUC0–32 h greater with glargine than NPH (32-h euglycemic clamp, 0.4 units/kg s.c., relative difference versus NPH): 31% | mean GIR AUC0–32 h greater with glargine than detemir (32-h euglycemic clamp, 0.4 units/kg s.c., relative difference versus detemir): 42%
